Results on 8 substances are retold here after paper PMC8302598, “Rapid discovery of self-assembling peptides with one-bead one-compound peptide library” (Nature Communications, 2021).

Series [1] in a line: Fluorescent-activation screening assay on OBOC beads (NBD). Type of series: physicochemical. The following applies: peptide N-terminally capped with NBD on TentaGel S beads, in water, fluorescence microscope. From the text: It is well known that Aβ16–20 peptide sequence KLVFF can self-assemble into nanofibers in water. We, therefore, chose it as a model peptide to test our screening strategy and used KAAGG as the non-assembling negative control. These control peptides, N-terminally capped with NBD were synthesized with standard Fmoc-chemistry, and TentaGel S resin beads as solid support but without any cleavable linker. After side-chain deprotection, the beads were thoroughly washed with DMF, which was replaced stepwise with water or methanol and then examined under a fluorescent microscope. […] This is expected as the hydrophobicity-sensitive fluorescence dye NBD would fluoresce brightly under hydrophobic condition, in this case, methanol. In water, we expect fluorescent signal emitted from non-sequestered NBD to diminish, unless it is buried inside a hydrophobic environment such as within peptide aggregates or β-sheets formed by KLVFF peptides.
(§1) Once the screening method has been validated with our model KLVFF peptide, a totally random pentapeptide library with 19[5] permutations (cysteine was omitted from the library) was constructed using our previously published methods (Supplementary Fig. 3)[23]. Again, TentaGel S resin (loading of 0.31 mmol/g) was used as the solid support. The pentapeptides in the library were N-terminally capped with NBD. […] The positive bead with an intense fluorescent signal (pointed with a solid arrow) was noted. The rest of the beads were considered negative or weak positive beads. From a total of approximately 100 000 beads screened, we selected a total of eight strongest fluorescent positive beads and four dark beads as negative beads. The peptides were then resynthesized in soluble form and purified by high-performance liquid chromatography (HPLC) for testing (Supplementary Figs. 4–12). The amino acid sequences of the eight self-assembling pentapeptides are FTISD, ITSVV, YFTEF, ISDNL, LDFPI, FAGFT, FGFDP, and FFVDF. Not unexpectedly, of the 40 amino acids in these eight pentapeptides, 50% are hydrophobic residues, predominated by Phe (11 Phe, 4 Ile, 3 Val, and 2 Leu). For the remaining 20 amino acids, six are acidic residues (5 Asp and 1 Glu) and seven are neutral and hydrophilic (4 Thr and 3 Ser). The rest are 2 Pro, 2 Gly, 1 Tyr, 1 Asn, and 1 Ala. All eight peptides have at least two hydrophobic residues. Six out of the eight peptides have one negatively charged residue (Asp or Glu). The remaining two peptides are neutral. […] For the Pro containing pentapeptides, LDFPI and FGFDP, the Pro residue, which promotes peptide turns, resides at the fourth and fifth positions, but not in the middle. Not unexpectedly, all the four randomly selected negative non-assembling peptides (RITTR, PLVKA, PFTTR, and QIMRW) have very different sequences, and contain at least one positive charged amino acid.
The OBOC pentapeptide libraries (19[5]) were built using Fmoc strategy SPPS (solid-phase peptide synthesis) (Supplementary Fig. 3). TentaGel S Resin (named N-beads with loading 0.31 mmol/g) was used as the solid phase support. The pentapeptide sequence of X1 X2 X3 X4 X5 was constructed in the library, in which X1−X5 represents either Ala, Asp, Glu, Phe, Gly, His, Ile, Lys, Leu, Met, Asn, Pro, Gln, Arg, Ser, Thr, Val, Trp, and Tyr residues. During the synthesis of OBOC library, solid support beads were mixed and split equally in each cycle, then different amino acids were added, separately, the process was repeated four times. The synthesis of peptides was used anhydrous DMF as solvent. The Fmoc group was removed by 20% (v/v) piperidine in DMF and the deprotection time was 10 min twice. During the coupling step, the HBTU (4 mM) and Fmoc-amino acid (4 mM) were dissolved in DMF containing NMM (0.4 mM). The coupling time was 50 min. Qualitative Fmoc deprotection and coupling were confirmed by ninhydrin test. All the above experiments were carried out in the solid phase peptide synthesis vessels with sieves in it. […]

The nature of series [2]: Self-assembly of resynthesized soluble pentapeptides. Type of series: physicochemical. The following applies: self-assembly under aqueous environment.
From the text: as §1
To estimate the propensity of the identified peptides to self-assemble, the critical micelle concentrations (CMC) of the eight positive peptides and four negative peptides were determined, and the results are shown in Table 1 and Supplementary Figs. 13, 14. The CMC of all the eight positive peptides were detectable and found to range between 8.4 and 14.8 μM, indicating the propensity for these peptides to self-assemble under aqueous environment. […] Hydrophobicity of peptides can be predicted by the value of GRAVY[28] with more negative value for more hydrophilic peptides. Of the four negative assembling peptides, two have a negative GRAVY value. […] Experimental testing, such as the screening strategy described in this work, is needed. This is because multiple factors, including hydrophobicity, hydrogen-bonding, electrostatic interactions, and positions of each residue within the peptides, all contribute to the assembling and final morphology of the self-assembled nano-structure. […]

As to “FAGFT [self-assembling pentapeptide identified from OBOC library]”, the “Fluorescence (beads)” value in series [1] is “On”. The Assembly entry in series [2] is “Yes”.
Take “FFVDF [self-assembling pentapeptide identified from OBOC library, forms nanofibers]”: the “Fluorescence (beads)” value in series [1] is recorded as “On”. Further, the Assembly entry in series [2] is on record as “Yes”.
For the substance “FGFDP [self-assembling pentapeptide identified from OBOC library]”, the “Fluorescence (beads)” value in series [1] is given as “On”. The Assembly result in series [2] is “Yes”.
For “FTISD [self-assembling pentapeptide identified from OBOC library]”, the “Fluorescence (beads)” value in series [1] is listed as “On”. For the same substance, the Assembly entry in series [2] is recorded as “Yes”.
For “ISDNL [self-assembling pentapeptide identified from OBOC library]”, in that order: “On” and “Yes”.
For the substance “ITSVV [self-assembling pentapeptide identified from OBOC library]”, the “Fluorescence (beads)” value in series [1] is on record as “On”. Also, the Assembly entry in series [2] is recorded as “Yes”.
Consider “LDFPI [self-assembling pentapeptide identified from OBOC library]”, for which the “Fluorescence (beads)” value in series [1] was “On”. Moreover, the Assembly entry in series [2] is given as “Yes”.
Take “YFTEF [self-assembling pentapeptide identified from OBOC library]”: the “Fluorescence (beads)” value in series [1] was “On”. In addition, the Assembly entry in series [2] is given as “Yes”.
